Assay results as given in patent US6770597B2, “Benzohydrazide derivatives as herbicides and desiccant compositions containing them” (Ishihara Sangyo Kaisha, Ltd., priority 2002, dated 2004).

Columns and labels:
Format in all cases: in vivo
[1] = test system: large crabgrass (Digitaria sanguinalis, DIGSA); experiment: Greenhouse herbicide screen, pre-emerge application, phytotoxicity rating; conditions: PRE emergent, 14 days after application, rating scale 0-100
Description: (§1) A standard greenhouse herbicide activity screening system was used to evaluate the herbicidal efficacy and crop safety of these test compounds. Seven broadleaf weed species including redroot pigweed (Amaranthus retrofiexus, AMARE), velvetleaf (Abutilon theophrasti, ABUTH), sicklepod (Cassia obtusifolia, CASOB), ivyleaf morningglory (Ipomoea hederacea, IPOHE), lambsquarters (Chenopodium album, CHEAL), common ragweed (Ambrosia artemisiifolia L., AMBEL), and cocklebur (Xanthium strumarium, XANST) were used as test species. Four grass weed species including green foxtail (Setaria viridis, SETVI), barnyardgrass (Echinochloa crus-galli, ECHCG), johnsongrass (Sorghum halepense, SORHA), and large crabgrass (Digitaria sanguinalis, DIGSA) were also used. In addition, four crop species, field corn (Zea mays L., var. Dekalb 535, CORN), soybean (Glycine max L., var. Pella 86, SOY), upland rice (Oryza sp., var.Cocodrie, RICE) and wheat (Triticum aestivum L.) were included.
(§2) All plants were grown in 10 cm square plastic pots which were filled with a sandy loam soil mix. For pre-emerge tests, seeds were planted one day prior to application of the test compounds. For post-emerge tests, seeds were planted 8-21 days prior to the test to allow emergence and good foliage development prior to application of the test substances. At the time of the post-emerge application, plants of all species were usually at the 2-3 leaf stage of development.
(§3) All test compounds were dissolved in acetone and applied to the test units in a volume of 187 l/ha. Test materials were applied at rates ranging from 15 g ai/ha to 1000 g ai/ha using a track sprayer equipped with a TJ8001E even flow flat fan spray nozzle. Plants were arranged on a shelf so that the top of the canopy (post-emerge) or top of the soil surface (pre-emerge) was 40-45 cm below the nozzle. Pressurized air was used to force the test solution through the nozzle as it was mechanically advanced (via electrically driven chain drive) over the top of all test plants/pots. This application simulates a typical commercial field herbicide application.
(§4) Pre-emergence tests were top watered immediately after treatment to incorporate the test materials, then routinely top-watered for normal growth. Post-emerge test units were always bottom-watered.
(§5) At 14 days after application of the test materials, phytotoxicity ratings were recorded. A rating scale of 0-100 was used as previously described in Research Methods in Weed Science, 2nd edition, B. Truelove, Ed., Southern Weed Science Society, Auburn University, Auburn, Ala., 1977. Briefly, “0” corresponds to no damage and “100” corresponds to complete death of all plants in the test unit. This scale was used both to determine efficacy against weed species and damage to crop species. Herbicide activity data for various compounds of this invention, which are shown by compound No. in Tables 1-12, are shown in Tables 13 and 14.

[2] = test system: redroot pigweed (Amaranthus retrofiexus, AMARE); experiment: as above; conditions: PRE emergent, 14 days after application, rating scale 0-100
Description: as §1, §2, §3, §4, §5

[3] = test system: johnsongrass (Sorghum halepense, SORHA); experiment: as above; conditions: PRE emergent, 14 days after application, rating scale 0-100
Description: as §1, §2, §3, §4, §5

[4] = test system: cocklebur (Xanthium strumarium, XANST); experiment: as above; conditions: PRE emergent, 14 days after application, rating scale 0-100
Description: as §1, §2, §3, §4, §5

[5] = test system: common ragweed (Ambrosia artemisiifolia L., AMBEL); experiment: as above; conditions: PRE emergent, 14 days after application, rating scale 0-100
Description: as §1, §2, §3, §4, §5

[6] = test system: velvetleaf (Abutilon theophrasti, ABUTH); experiment: as above; conditions: PRE emergent, 14 days after application, rating scale 0-100
Description: as §1, §2, §3, §4, §5

[7] = test system: lambsquarters (Chenopodium album, CHEAL); experiment: as above; conditions: PRE emergent, 14 days after application, rating scale 0-100
Description: as §1, §2, §3, §4, §5

[8] = test system: barnyardgrass (Echinochloa crus-galli, ECHCG); experiment: as above; conditions: PRE emergent, 14 days after application, rating scale 0-100
Description: as §1, §2, §3, §4, §5

[9] = test system: ivyleaf morningglory (Ipomoea hederacea, IPOHE); experiment: as above; conditions: PRE emergent, 14 days after application, rating scale 0-100
Description: as §1, §2, §3, §4, §5

[10] = test system: sicklepod (Cassia obtusifolia, CASOB); experiment: as above; conditions: PRE emergent, 14 days after application, rating scale 0-100
Description: as §1, §2, §3, §4, §5

[11] = test system: green foxtail (Setaria viridis, SETVI); experiment: as above; conditions: PRE emergent, 14 days after application, rating scale 0-100
Description: as §1, §2, §3, §4, §5

[12] = test system: large crabgrass (Digitaria sanguinalis, DIGSA); experiment: Greenhouse herbicide screen, post-emerge application, phytotoxicity rating; conditions: POST emergent, 14 days after application, scale 0-100
Description: as §1, §2, §3, §4, §5

[13] = test system: redroot pigweed (Amaranthus retrofiexus, AMARE); experiment: as above; conditions: POST emergent, 14 days after application
Description: as §1, §2, §3, §4, §5

[14] = test system: johnsongrass (Sorghum halepense, SORHA); experiment: as above; conditions: POST emergent, 14 days after application, scale 0-100
Description: as §1, §2, §3, §4, §5

[15] = test system: cocklebur (Xanthium strumarium, XANST); experiment: as above; conditions: POST emergent, 14 days after application, scale 0-100
Description: as §1, §2, §3, §4, §5

[16] = test system: common ragweed (Ambrosia artemisiifolia L., AMBEL); experiment: as above; conditions: POST emergent, 14 days after application, scale 0-100
Description: as §1, §2, §3, §4, §5

[17] = test system: velvetleaf (Abutilon theophrasti, ABUTH); experiment: as above; conditions: POST emergent, 14 days after application, scale 0-100
Description: as §1, §2, §3, §4, §5

[18] = test system: lambsquarters (Chenopodium album, CHEAL); experiment: as above; conditions: POST emergent, 14 days after application, scale 0-100
Description: as §1, §2, §3, §4, §5

[19] = test system: barnyardgrass (Echinochloa crus-galli, ECHCG); experiment: as above; conditions: POST emergent, 14 days after application, scale 0-100
Description: as §1, §2, §3, §4, §5

[20] = test system: ivyleaf morningglory (Ipomoea hederacea, IPOHE); experiment: as above; conditions: POST emergent, 14 days after application, scale 0-100
Description: as §1, §2, §3, §4, §5

[21] = test system: sicklepod (Cassia obtusifolia, CASOB); experiment: as above; conditions: POST emergent, 14 days after application, scale 0-100
Description: as §1, §2, §3, §4, §5

[22] = test system: green foxtail (Setaria viridis, SETVI); experiment: as above; conditions: POST emergent, 14 days after application, scale 0-100
Description: as §1, §2, §3, §4, §5

[23] = 63 g ai/ha, scale 0-100 (0 no damage, 100 complete death)

CC(=O)OC(=NN=C(C)C(C)(C)C)c1cc(-n2c(=O)cc(C(F)(F)F)n(C)c2=O)c(F)cc1Cl [Compound 5-2, 2-chloro-5-(3,6-dihydro-3-methyl-2,6-dioxo-4-(trifluoromethyl)-1(2H)-pyrimidinyl)-4-fluoro-N-(1,2,2-trimethylpropylidene)-benzenecarbohydrazonic Acid, Acetyl Ester]
phytotoxicity rating DIGSA ([1]; 63 g ai/ha): 60 | phytotoxicity rating AMARE ([2]; 63 g ai/ha): 100 | phytotoxicity rating SORHA ([3]; 63 g ai/ha): 70 | phytotoxicity rating XANST ([4]; 63 g ai/ha): 0 | phytotoxicity rating AMBEL ([5]; 63 g ai/ha): 60 | phytotoxicity rating ABUTH ([6]; 63 g ai/ha): 95 | phytotoxicity rating CHEAL ([7]; 63 g ai/ha): 100 | phytotoxicity rating ECHCG ([8]; 63 g ai/ha): 40 | phytotoxicity rating IPOHE ([9]; 63 g ai/ha): 95 | phytotoxicity rating CASOB ([10]; 63 g ai/ha): 55 | phytotoxicity rating SETVI ([11]; 63 g ai/ha): 70 | phytotoxicity rating DIGSA ([12]; 63 g ai/ha): 50 | phytotoxicity rating AMARE [13, 23]: 95 | phytotoxicity rating SORHA ([14]; 63 g ai/ha): 55 | phytotoxicity rating XANST ([15]; 63 g ai/ha): 99 | phytotoxicity rating AMBEL ([16]; 63 g ai/ha): 90 | phytotoxicity rating ABUTH ([17]; 63 g ai/ha): 100 | phytotoxicity rating CHEAL ([18]; 63 g ai/ha): 100 | phytotoxicity rating ECHCO ([19]; 63 g ai/ha): 95 | phytotoxicity rating IPOHE ([20]; 63 g ai/ha): 100 | phytotoxicity rating CASOB ([21]; 63 g ai/ha): 55 | phytotoxicity rating SETVI ([22]; 63 g ai/ha): 50

CC(=NNC(=O)c1cc(-n2c(=O)cc(C(F)(F)F)n(C)c2=O)c(F)cc1Cl)C(C)(C)C [Compound 6-5, 2-chloro-5-(3,6-dihydro-3-methyl-2,6-dioxo-4-(trifluoromethyl)-1(2H)-pyrimidinyl)-4-fluoro-benzoic Acid, 2-(1,2,2-trimethylpropylidene)hydrazide]
phytotoxicity rating DIGSA ([1]; 63 g ai/ha): 90 | phytotoxicity rating DIGSA ([1]; 250 g ai/ha): 99 | phytotoxicity rating AMARE ([2]; 63 g ai/ha): 99 | phytotoxicity rating AMARE ([2]; 250 g ai/ha): 100 | phytotoxicity rating SORHA ([3]; 63 g ai/ha): 85 | phytotoxicity rating SORHA ([3]; 250 g ai/ha): 99 | phytotoxicity rating XANST ([4]; 63 g ai/ha): 55 | phytotoxicity rating XANST ([4]; 250 g ai/ha): 99 | phytotoxicity rating AMBEL ([5]; 63 g ai/ha): 70 | phytotoxicity rating AMBEL ([5]; 250 g ai/ha): 100 | phytotoxicity rating ABUTH ([6]; 63 g ai/ha): 95 | phytotoxicity rating ABUTH ([6]; 250 g ai/ha): 100 | phytotoxicity rating CHEAL ([7]; 63 g ai/ha): 99 | phytotoxicity rating CHEAL ([7]; 250 g ai/ha): 100 | phytotoxicity rating ECHCG ([8]; 63 g ai/ha): 55 | phytotoxicity rating ECHCG ([8]; 250 g ai/ha): 90 | phytotoxicity rating IPOHE ([9]; 63 g ai/ha): 100 | phytotoxicity rating IPOHE ([9]; 250 g ai/ha): 100 | phytotoxicity rating CASOB ([10]; 63 g ai/ha): 50 | phytotoxicity rating CASOB ([10]; 250 g ai/ha): 70 | phytotoxicity rating SETVI ([11]; 63 g ai/ha): 60 | phytotoxicity rating SETVI ([11]; 250 g ai/ha): 85 | phytotoxicity rating DIGSA ([12]; 63 g ai/ha): 75 | phytotoxicity rating DIGSA ([12]; 250 g ai/ha): 80 | phytotoxicity rating AMARE [13, 23]: 70 | phytotoxicity rating AMARE ([13]; 250 g ai/ha, scale 0-100): 100 | phytotoxicity rating SORHA ([14]; 63 g ai/ha): 0 | phytotoxicity rating SORHA ([14]; 250 g ai/ha): 90 | phytotoxicity rating XANST ([15]; 63 g ai/ha): 70 | phytotoxicity rating XANST ([15]; 250 g ai/ha): 100 | phytotoxicity rating AMBEL ([16]; 63 g ai/ha): 60 | phytotoxicity rating AMBEL ([16]; 250 g ai/ha): 80 | phytotoxicity rating ABUTH ([17]; 63 g ai/ha): 65 | phytotoxicity rating ABUTH ([17]; 250 g ai/ha): 100 | phytotoxicity rating CHEAL ([18]; 63 g ai/ha): 60 | phytotoxicity rating CHEAL ([18]; 250 g ai/ha): 95 | phytotoxicity rating ECHCO ([19]; 63 g ai/ha): 80 | phytotoxicity rating ECHCO ([19]; 250 g ai/ha): 95 | phytotoxicity rating IPOHE ([20]; 63 g ai/ha): 75 | phytotoxicity rating IPOHE ([20]; 250 g ai/ha): 100 | phytotoxicity rating CASOB ([21]; 63 g ai/ha): 50 | phytotoxicity rating CASOB ([21]; 250 g ai/ha): 65 | phytotoxicity rating SETVI ([22]; 63 g ai/ha): 30 | phytotoxicity rating SETVI ([22]; 250 g ai/ha): 55
